Data as given in patent US7829587B2, “Substituted 2-aminotetralin derivatives as selective alpha 2B agonist” (Allergan, Inc., priority 2008, dated 2010).

Experiments:
Type in all cases: cell-based
human α2A receptor = molecular target: T1, human α2A receptor (Homo sapiens, UniProt P08913); experiment: FLIPR Ca+2 influx assay, α2A; conditions: for EC50: HEK 293 cells stably expressing human α2A receptor and chimeric G protein Gqi5; for Relative efficacy FLIPR α2A: relative efficacy compared to standard full agonist norepinephrine, HEK 293, human α2A/Gqi5
T1 construct: expressed in transfected cells; host or cells: HEK 293
T1 sequence (P08913 1-465): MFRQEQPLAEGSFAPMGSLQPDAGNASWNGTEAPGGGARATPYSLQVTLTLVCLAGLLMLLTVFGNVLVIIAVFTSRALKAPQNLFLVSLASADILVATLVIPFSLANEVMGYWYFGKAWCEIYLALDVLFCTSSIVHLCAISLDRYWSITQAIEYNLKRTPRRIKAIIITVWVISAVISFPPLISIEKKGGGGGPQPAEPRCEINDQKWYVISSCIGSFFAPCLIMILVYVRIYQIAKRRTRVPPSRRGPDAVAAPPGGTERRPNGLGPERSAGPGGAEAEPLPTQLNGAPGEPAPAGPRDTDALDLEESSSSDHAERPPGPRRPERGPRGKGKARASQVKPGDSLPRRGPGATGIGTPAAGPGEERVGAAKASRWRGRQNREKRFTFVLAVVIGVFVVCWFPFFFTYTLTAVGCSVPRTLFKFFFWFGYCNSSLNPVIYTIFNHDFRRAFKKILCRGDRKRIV
Description: (§1) The compounds disclosed herein are agonists of alpha 2B/2C adrenergic receptors. […] This assay is adequate for monitoring the intracellular Ca^2+ mobilization from fluorescent reading to evaluate receptor agonists.
(§2) FLIPR Ca+2 Influx Assay: HEK 293 cells stably expressing the bovine α1A receptor, the rat α1B receptor, the human α2A receptor and the chimeric G protein Gqi5, the human α2C receptor and the chimeric G protein Gqi5 and the mouse α2B receptor and the Gα16 protein were plated in poly-D-lysine coated 384 well plates at 15,000-25,000 cells per well and grown overnight in DMEM supplemented with 10% fetal bovine serum. For FLIPR (fluorometric image plate reader) evaluation, cells were washed 2-4 times with HBSS/HEPES Buffer (1× Hanks Buffered Salt Solution, 20 mM HEPES<pH 7.4) prior to the addition of Fluo-4-AM (4 uM Fluo-4-AM, 0.04% pluronic acid in HBSS/HEPES Buffer), a calcium-sensitive dye. Cells were loaded with Dye for 40 minutes at 30° C., then washed 4-8 times with HBSS/HEPES Buffer to remove excess dye. Cells were preincubated at 37° C. for 3 minutes prior to placement into the FLIPR instrument. The reaction was carried out at 37° C. and was initiated by the addition of the appropriate dilutions of compounds. The transient calcium was captured and the peak height of the calcium curve determined and utilized for calculation of EC50 and efficacy using ActivityBase. Data is stored in the ActivityBase database under the unique identifier “Test Occasion”, which reflects the results of an assay run on a particular date and the individual responsible for the assay. Norepinephrine was the standard full agonist for evaluating alpha1 and alpha2 receptor activity.

mouse α2B receptor = molecular target: T2, mouse α2B receptor (Mus musculus, UniProt P30545); experiment: FLIPR Ca+2 influx assay, α2B; conditions: for Relative efficacy FLIPR α2B: relative efficacy compared to standard full agonist norepinephrine, HEK 293, mouse α2B/Gα16
T2 construct: expressed in transfected cells; host or cells: HEK 293
T2 sequence (P30545 1-453): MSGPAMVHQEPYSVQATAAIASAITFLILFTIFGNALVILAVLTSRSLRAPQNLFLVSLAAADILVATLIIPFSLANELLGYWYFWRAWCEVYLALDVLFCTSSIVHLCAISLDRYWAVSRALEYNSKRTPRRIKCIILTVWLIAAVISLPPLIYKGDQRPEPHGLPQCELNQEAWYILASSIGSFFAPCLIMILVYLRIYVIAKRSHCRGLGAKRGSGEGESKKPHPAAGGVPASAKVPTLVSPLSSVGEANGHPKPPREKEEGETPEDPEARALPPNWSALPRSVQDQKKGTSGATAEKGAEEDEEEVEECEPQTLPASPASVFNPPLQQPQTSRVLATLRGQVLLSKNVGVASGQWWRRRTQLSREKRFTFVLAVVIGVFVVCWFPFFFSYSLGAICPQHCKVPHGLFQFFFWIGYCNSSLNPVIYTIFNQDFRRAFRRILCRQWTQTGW
Description: as §1, §2

human α2C receptor = molecular target: T3, human α2C receptor (Homo sapiens, UniProt P18825); experiment: FLIPR Ca+2 influx assay, α2C; conditions: for EC50: HEK 293 cells stably expressing human α2C receptor and chimeric G protein Gqi5; for Relative efficacy FLIPR α2C: relative efficacy compared to standard full agonist norepinephrine, HEK 293, human α2C/Gqi5
T3 construct: expressed in transfected cells; host or cells: HEK 293
T3 sequence (P18825 1-462): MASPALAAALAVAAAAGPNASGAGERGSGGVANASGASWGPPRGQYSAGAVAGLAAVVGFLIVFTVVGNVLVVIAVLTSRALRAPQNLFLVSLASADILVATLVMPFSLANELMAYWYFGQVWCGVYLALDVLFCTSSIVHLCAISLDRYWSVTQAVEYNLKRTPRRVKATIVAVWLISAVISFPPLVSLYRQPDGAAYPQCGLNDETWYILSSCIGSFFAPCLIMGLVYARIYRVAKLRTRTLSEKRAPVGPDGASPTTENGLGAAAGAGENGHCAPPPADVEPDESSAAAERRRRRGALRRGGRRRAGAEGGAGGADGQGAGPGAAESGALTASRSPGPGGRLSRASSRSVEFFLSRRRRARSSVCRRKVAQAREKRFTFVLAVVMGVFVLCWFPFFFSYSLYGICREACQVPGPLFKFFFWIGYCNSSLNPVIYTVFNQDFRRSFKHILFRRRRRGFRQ
Description: as §1, §2

bovine α1A receptor = molecular target: T4, bovine α1A receptor (Bos taurus, UniProt P18130); experiment: FLIPR Ca+2 influx assay, α1A; conditions: for EC50: HEK 293 cells stably expressing bovine α1A receptor; for Relative efficacy FLIPR α1A: relative efficacy compared to standard full agonist norepinephrine, HEK 293, bovine α1A
T4 construct: expressed in transfected cells; host or cells: HEK 293
T4 sequence (P18130 1-466): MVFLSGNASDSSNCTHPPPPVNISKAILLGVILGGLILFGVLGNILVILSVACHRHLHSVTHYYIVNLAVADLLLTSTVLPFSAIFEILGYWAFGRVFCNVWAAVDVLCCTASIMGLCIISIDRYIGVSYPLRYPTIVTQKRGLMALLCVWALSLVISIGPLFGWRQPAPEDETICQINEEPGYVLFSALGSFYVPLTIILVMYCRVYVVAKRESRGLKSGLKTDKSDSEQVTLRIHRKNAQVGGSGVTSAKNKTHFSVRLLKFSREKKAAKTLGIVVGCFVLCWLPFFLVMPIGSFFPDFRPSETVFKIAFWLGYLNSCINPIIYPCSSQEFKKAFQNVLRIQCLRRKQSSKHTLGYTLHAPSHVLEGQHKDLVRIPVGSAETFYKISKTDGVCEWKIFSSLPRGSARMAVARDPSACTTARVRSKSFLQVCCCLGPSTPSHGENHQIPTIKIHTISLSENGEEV
Description: as §1, §2

rat α1B receptor = molecular target: T5, rat α1B receptor (Rattus norvegicus, UniProt P15823); experiment: FLIPR Ca+2 influx assay, α1B; conditions: for EC50: HEK 293 cells stably expressing rat α1B receptor; for Relative efficacy FLIPR α1B: relative efficacy compared to standard full agonist norepinephrine, HEK 293, rat α1B
T5 construct: expressed in transfected cells; host or cells: HEK 293
T5 sequence (P15823 1-515): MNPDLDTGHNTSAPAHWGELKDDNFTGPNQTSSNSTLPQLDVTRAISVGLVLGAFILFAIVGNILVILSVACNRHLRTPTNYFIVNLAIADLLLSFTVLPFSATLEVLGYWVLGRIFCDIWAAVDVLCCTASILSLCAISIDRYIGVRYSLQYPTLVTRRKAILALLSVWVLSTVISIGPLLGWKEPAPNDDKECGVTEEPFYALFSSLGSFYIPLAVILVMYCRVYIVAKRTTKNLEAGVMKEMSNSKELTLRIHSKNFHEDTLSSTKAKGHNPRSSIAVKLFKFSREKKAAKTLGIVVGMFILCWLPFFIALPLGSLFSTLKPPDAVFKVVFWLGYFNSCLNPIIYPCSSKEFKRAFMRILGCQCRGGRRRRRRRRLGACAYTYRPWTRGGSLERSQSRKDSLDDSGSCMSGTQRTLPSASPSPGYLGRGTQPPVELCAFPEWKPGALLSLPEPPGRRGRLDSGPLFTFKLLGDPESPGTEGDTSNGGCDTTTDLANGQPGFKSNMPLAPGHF
Description: as §1, §2

[1] = HEK 293 cells stably expressing mouse α2B receptor and Gα16 protein

CCCN(Cc1ccncc1)[C@@H]1CCc2cccc(OC)c2C1
EC50 (human α2A receptor): 0.424 µM | Relative efficacy FLIPR α2A (human α2A receptor): 0.34 | EC50 FLIPR α2B (mouse α2B receptor; [1]): potent | Relative efficacy FLIPR α2B (mouse α2B receptor): 1.02 | EC50 (human α2C receptor): 0.557 µM | Relative efficacy FLIPR α2C (human α2C receptor): 0.67 | EC50 (bovine α1A receptor): > 10 µM | Relative efficacy FLIPR α1A (bovine α1A receptor): 0 | EC50 (rat α1B receptor): > 10 µM | Relative efficacy FLIPR α1B (rat α1B receptor): 0

CCCN(Cc1ccncc1)C1CCc2cccc(O)c2C1 (centres unmarked)
EC50 (human α2A receptor): > 10 µM | Relative efficacy FLIPR α2A (human α2A receptor): 0 | EC50 (mouse α2B receptor; [1]): 0.058 µM | Relative efficacy FLIPR α2B (mouse α2B receptor): 1.06 | Relative efficacy FLIPR α2C (human α2C receptor): ND (0.12) | EC50 (bovine α1A receptor): > 10 µM | Relative efficacy FLIPR α1A (bovine α1A receptor): 0 | EC50 (rat α1B receptor): > 10 µM | Relative efficacy FLIPR α1B (rat α1B receptor): 0

CCCN(Cc1ccccn1)C1CCc2cccc(O)c2C1 (centres unmarked) [drawing 20]
EC50 (human α2A receptor): > 10 µM | Relative efficacy FLIPR α2A (human α2A receptor): 0 | EC50 (mouse α2B receptor; [1]): 0.568 µM | Relative efficacy FLIPR α2B (mouse α2B receptor): 0.69 | EC50 (human α2C receptor): > 10 µM | Relative efficacy FLIPR α2C (human α2C receptor): 0 | EC50 (bovine α1A receptor): > 10 µM | Relative efficacy FLIPR α1A (bovine α1A receptor): 0 | EC50 (rat α1B receptor): > 10 µM | Relative efficacy FLIPR α1B (rat α1B receptor): 0

CCCN(Cc1ccccn1)C1CCc2cccc(O)c2C1 (centres unmarked) [drawing 21]
EC50 (human α2A receptor): > 10 µM | Relative efficacy FLIPR α2A (human α2A receptor): 0 | EC50 (mouse α2B receptor; [1]): 0.033 µM | Relative efficacy FLIPR α2B (mouse α2B receptor): 0.95 | EC50 (human α2C receptor): > 10 µM | Relative efficacy FLIPR α2C (human α2C receptor): 0 | Relative efficacy FLIPR α1A (bovine α1A receptor): ND (0.05) | EC50 (rat α1B receptor): > 10 µM | Relative efficacy FLIPR α1B (rat α1B receptor): 0
